According to PMC9860728, “Identification of New N-methyl-piperazine Chalcones as Dual MAO-B/AChE Inhibitors” (Pharmaceuticals, 2023):

Key:
MAO-A = molecular target: T1, MAO-A (Homo sapiens, UniProt P21397); test: MAO-A enzyme inhibition assay (kynuramine substrate); format: biochemical; conditions: mean ± SD; for remaining activity at 10 µM: read-out: Residual Activities at 10 μM (%) MAO-A
T1 construct: purchased Sigma Aldrich
T1 sequence (P21397 1-527): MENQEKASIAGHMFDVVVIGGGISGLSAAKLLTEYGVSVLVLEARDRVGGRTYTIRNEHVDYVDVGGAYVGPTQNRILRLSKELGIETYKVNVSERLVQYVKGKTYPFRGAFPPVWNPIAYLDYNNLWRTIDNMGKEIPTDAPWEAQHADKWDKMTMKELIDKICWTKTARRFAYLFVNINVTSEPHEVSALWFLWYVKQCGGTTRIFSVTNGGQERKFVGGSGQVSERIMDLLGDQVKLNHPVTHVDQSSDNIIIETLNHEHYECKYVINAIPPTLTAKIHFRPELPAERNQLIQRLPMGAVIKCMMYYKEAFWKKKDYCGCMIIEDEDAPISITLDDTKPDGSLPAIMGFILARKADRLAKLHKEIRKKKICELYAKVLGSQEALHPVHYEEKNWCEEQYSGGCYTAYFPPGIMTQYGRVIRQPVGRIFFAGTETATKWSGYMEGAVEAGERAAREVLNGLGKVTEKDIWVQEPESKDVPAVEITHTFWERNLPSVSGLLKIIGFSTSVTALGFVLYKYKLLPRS
Protocol: (§1) MAO assays were performed as described previously, i.e., ~0.09 U/mL of MAO-A and MAO-B were reacted with 0.06 mM kynuramine and 0.3 mM benzylamine, respectively, in 50 mM sodium phosphate (pH 7.2). […] For inhibition assay, the compounds were dissolved in DMSO and added into the reaction mixture. The final concentration of DMSO in the reaction mixture was less than 1% to avoid solvent disturbance.

BChE = BChE (Equus caballus, UniProt P81908); test: biochemical; conditions: read-out: Residual Activities at 10 μM (%) BChE
Protocol: (§2) For measuring cholinesterase (ChE) activity, the Ellman method was employed with a slight modification. The AChE and BchE with ~0.02 U/mL were reacted with 0.5 mM ATCI and BTCI, respectively, followed by addition of 0.5 mM DTNB. […] In the inhibition assay, the enzyme and the compound were preincubated in reaction buffer for 15 min, followed by adding substrates and DTNB.

MAO-B = molecular target: T2, MAO-B (Homo sapiens, UniProt P27338); test: MAO-B enzyme inhibition assay (benzylamine substrate); format: biochemical; conditions: for remaining activity at 10 µM: read-out: Residual Activities at 10 μM (%) MAO-B; for SI (MAO): MAO-B selectivity over MAO-A, based on IC50 values
T2 construct: purchased Sigma Aldrich
T2 sequence (P27338 1-520): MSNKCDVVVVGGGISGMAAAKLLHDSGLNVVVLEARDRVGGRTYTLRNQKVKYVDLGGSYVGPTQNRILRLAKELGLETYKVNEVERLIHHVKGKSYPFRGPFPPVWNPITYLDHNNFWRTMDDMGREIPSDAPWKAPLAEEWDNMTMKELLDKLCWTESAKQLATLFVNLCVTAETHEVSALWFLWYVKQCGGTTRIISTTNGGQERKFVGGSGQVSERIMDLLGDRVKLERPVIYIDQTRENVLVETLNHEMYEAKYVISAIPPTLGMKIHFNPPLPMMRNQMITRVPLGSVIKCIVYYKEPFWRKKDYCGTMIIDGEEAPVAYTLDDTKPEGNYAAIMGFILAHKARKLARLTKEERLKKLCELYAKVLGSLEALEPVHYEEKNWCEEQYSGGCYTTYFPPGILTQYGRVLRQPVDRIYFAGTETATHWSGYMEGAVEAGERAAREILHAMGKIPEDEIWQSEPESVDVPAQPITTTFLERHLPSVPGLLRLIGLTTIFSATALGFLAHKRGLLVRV
Protocol: as §1

AChE = AChE (Electrophorus electricus, UniProt O42275); test: AChE inhibition assay (Ellman method, ATCI); format: biochemical; conditions: for remaining activity at 10 µM / Residual Activities at 10 μM (%) AChE: 10 μM compound, mean ± SD; for remaining activity at 10 µM: read-out: Residual Activities at 10 μM (%) AChE; for SI (ChE): AChE selectivity over BChE, based on IC50 values
Protocol: as §2

Sequence of AChE (O42275 24-633): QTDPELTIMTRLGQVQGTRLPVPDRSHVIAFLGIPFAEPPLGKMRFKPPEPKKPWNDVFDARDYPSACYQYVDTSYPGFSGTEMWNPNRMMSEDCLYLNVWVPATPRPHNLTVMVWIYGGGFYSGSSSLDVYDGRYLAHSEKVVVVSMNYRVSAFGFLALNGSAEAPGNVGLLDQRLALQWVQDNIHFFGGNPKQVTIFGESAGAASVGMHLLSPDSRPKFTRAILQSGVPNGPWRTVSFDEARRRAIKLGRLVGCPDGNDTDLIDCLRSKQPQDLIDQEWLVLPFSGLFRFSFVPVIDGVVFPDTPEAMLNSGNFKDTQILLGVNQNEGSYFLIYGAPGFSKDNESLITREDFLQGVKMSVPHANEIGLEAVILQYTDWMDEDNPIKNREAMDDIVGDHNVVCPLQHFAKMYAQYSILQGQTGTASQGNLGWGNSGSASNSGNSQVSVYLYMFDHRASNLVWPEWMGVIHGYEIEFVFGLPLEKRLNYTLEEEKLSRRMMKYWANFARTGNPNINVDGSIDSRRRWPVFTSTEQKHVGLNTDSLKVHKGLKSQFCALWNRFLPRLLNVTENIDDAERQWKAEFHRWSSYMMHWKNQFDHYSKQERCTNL
Sequence of BChE (P81908 whole entry): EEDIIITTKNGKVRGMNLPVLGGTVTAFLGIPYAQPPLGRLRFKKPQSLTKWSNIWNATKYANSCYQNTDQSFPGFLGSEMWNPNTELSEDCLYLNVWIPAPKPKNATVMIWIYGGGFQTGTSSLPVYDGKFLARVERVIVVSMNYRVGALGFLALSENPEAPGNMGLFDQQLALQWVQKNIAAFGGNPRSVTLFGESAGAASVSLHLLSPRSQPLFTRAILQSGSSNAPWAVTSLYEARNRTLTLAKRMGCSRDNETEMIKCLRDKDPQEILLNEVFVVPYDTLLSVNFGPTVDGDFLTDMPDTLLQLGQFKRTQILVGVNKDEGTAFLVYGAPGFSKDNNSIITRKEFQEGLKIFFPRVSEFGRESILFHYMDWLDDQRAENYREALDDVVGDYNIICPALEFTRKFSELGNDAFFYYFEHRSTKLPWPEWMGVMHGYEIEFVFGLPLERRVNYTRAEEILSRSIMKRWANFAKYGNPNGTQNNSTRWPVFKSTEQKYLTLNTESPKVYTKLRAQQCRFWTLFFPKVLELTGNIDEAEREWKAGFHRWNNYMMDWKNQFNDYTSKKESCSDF

Row | Structure (SMILES) | remaining activity at 10 µM (MAO-A; 10 μM compound) [%] | IC50 (MAO-A) [µM] | remaining activity at 10 µM (BChE) [%] | remaining activity at 10 µM (MAO-B; 10 μM compound, mean ± SD) [%] | SI (MAO) (MAO-B) | IC50 (MAO-B; mean ± SD) [µM] | remaining activity at 10 µM (AChE) [%] | SI (ChE) (AChE) | Residual Activities at 10 μM (%) MAO-B (MAO-B; 10 μM compound, mean ± SD) [%] | Residual Activities at 10 μM (%) AChE (AChE) [%] | Residual Activities at 10 μM (%) MAO-A (MAO-A; 10 μM compound) [%]
1 | CN1CCN(c2ccc(C(=O)/C=C/c3ccc(C#N)cc3)cc2)CC1 [Compound 2d, (E)-4-(3-(4-(4-methylpiperazin-1-yl)phenyl)-3-oxoprop-1-en-1-yl)benzonitrile] | 72.3 ± 2.5 | > 40 | 71.5 ± 5.25 | 16.7 ± 4.71 | 18.18 | 2.2 ± 0.06 | 24.3 ± 0.95 | 10.38 | – | – | –
2 | CSc1ccc(/C=C/C(=O)c2ccc(N3CCN(C)CC3)cc2)cc1 [Compound 2g, (E)-1-(4-(4-methylpiperazin-1-yl)phenyl)-3-(4-(methylthio)phenyl)prop-2-en-1-one] | 97.2 ± 1.99 | > 40 | 74.7 ± 4.48 | 40 ± 1.67 | 5.93 | 6.74 ± 0.03 | 50.4 ± 4.43 | >3.22 | – | – | –
3 | CN1CCN(c2ccc(C(=O)/C=C/c3cc(C(F)(F)F)ccc3Cl)cc2)CC1 [Compound 2o, (E)-3-(2-chloro-5-(trifluoromethyl)phenyl)-1-(4-(4-methylpiperazin-1-yl)phenyl)prop-2-en-1-one] | 92.5 ± 4.23 | > 40 | 6.46 ± 3.05 | 22.9 ± 2.26 | 12.50 | 3.2 ± 0.32 | 37.6 | 0.31 | – | – | –
4 | CN1CCN(c2ccc(C(=O)/C=C/c3ccc(F)cc3F)cc2)CC1 [Compound 2q, (E)-3-(2,4-difluorophenyl)-1-(4-(4-methylpiperazin-1-yl)phenyl)prop-2-en-1-one] | 72.7 ± 3.31 | 16.5 ± 1.75 | 55.3 ± 0.68 | 13.1 ± 2.06 | 5.45 | 3.03 ± 0.13 | 33.78 ± 0.27 | 1.71 | – | – | –
5 | CN1CCN(c2ccc(C(=O)/C=C/c3ccc(F)cc3)cc2)CC1 [Compound 2c, (E)-3-(4-fluorophenyl)-1-(4-(4-methylpiperazin-1-yl)phenyl)prop-2-en-1-one] | 103 ± 8.84 | > 40 | 49.7 ± 3.7 | 22.7 ± 1.61 | 13.42 | 2.98 ± 0.18 | 49.4 ± 4.66 | 1.79 | – | – | –
6 | CN1CCN(c2ccc(C(=O)/C=C/c3ccc(Cl)c(C(F)(F)F)c3)cc2)CC1 [Compound 2l, (E)-3-(4-chloro-3-(trifluoromethyl)phenyl)-1-(4-(4-methylpiperazin-1-yl)phenyl)prop-2-en-1-one] | 85.9 ± 1.66 | > 40 | 73 ± 1.75 | – | 28.37 | 1.41 ± 0.04 | 68.5 ± 1.32 | 1.85 | 0.00 ± 1.79 | – | –
7 | CN1CCN(c2ccc(C(=O)/C=C/c3cc(F)cc(C(F)(F)F)c3)cc2)CC1 [Compound 2i, (E)-3-(3-fluoro-5-(trifluoromethyl)phenyl)-1-(4-(4-methylpiperazin-1-yl)phenyl)prop-2-en-1-one] | 114 ± 6.06 | > 40 | 63.7 ± 6.24 | 20.4 ± 2.47 | 17.17 | 2.33 ± 0.14 | 51.5 ± 4.92 | 1.82 | – | – | –
8 | CN1CCN(c2ccc(C(=O)/C=C/c3ccc(N(C)C)cc3)cc2)CC1 [Compound 2f, (E)-3-(4-(dimethylamino)phenyl)-1-(4-(4-methylpiperazin-1-yl)phenyl)prop-2-en-1-one] | 83.6 ± 4.22 | > 40 | 76.5 ± 3.35 | 21.3 ± 3.77 | 12.16 | 3.29 ± 0.08 | – | >13.20 | – | 26.37 ± 1.85 | –
9 | CN1CCN(c2ccc(C(=O)/C=C/c3cc(C(F)(F)F)cc(C(F)(F)F)c3)cc2)CC1 [Compound 2j, (E/Z)-3-(3,5-bis(trifluoromethyl)phenyl)-1-(4-(4-methylpiperazin-1-yl)phenyl)prop-2-en-1-one] | 97.1 ± 4.04 | > 40 | 86 ± 1.04 | 67.8 ± 5.36 | 2.55 | 15.7 ± 1.17 | 57.1 ± 5.39 | >2.60 | – | – | –
10 | COc1ccc(/C=C/C(=O)c2ccc(N3CCN(C)CC3)cc2)c(C(F)(F)F)c1 [Compound 2p, (E)-3-(4-methoxy-2-(trifluoromethyl)phenyl)-1-(4-(4-methylpiperazin-1-yl)phenyl)prop-2-en-1-one] | 44.5 ± 3.31 | 6.67 ± 0.63 | 28.9 ± 4.08 | 15 ± 3.93 | 3.06 | 2.18 ± 0.01 | 37.8 ± 7.64 | 1.06 | – | – | –
11 | CC(C)c1ccc(/C=C/C(=O)c2ccc(N3CCN(C)CC3)cc2)cc1 [Compound 2e, (E)-3-(4-isopropylphenyl)-1-(4-(4-methylpiperazin-1-yl)phenyl)prop-2-en-1-one] | 60.6 ± 3.98 | 16.2 ± 1.74 | 49.3 ± 1.28 | 44.1 ± 3.04 | 1.94 | 8.36 ± 0.39 | – | 3.83 | – | 17.75 ± 1.85 | –
12 | CN1CCN(c2ccc(C(=O)/C=C/c3ccc(C(F)(F)F)cc3)cc2)CC1 [Compound 2b, (E)-1-(4-(4-methylpiperazin-1-yl)phenyl)-3-(4-(trifluoromethyl)phenyl)prop-2-en-1-one] | – | > 40 | 58.5 ± 1.38 | 21 ± 4.02 | 12.90 | 3.1 ± 0.04 | 19 ± 0.55 | 5.92 | – | – | 88.19 ± 6.87
13 | COc1cc(/C=C/C(=O)c2ccc(N3CCN(C)CC3)cc2)ccc1F [Compound 2m, (E)-3-(4-fluoro-3-methoxyphenyl)-1-(4-(4-methylpiperazin-1-yl)phenyl)prop-2-en-1-one] | 78.8 ± 1.66 | > 40 | 66.8 ± 2.1 | 39.9 ± 6.26 | 5.92 | 6.76 ± 0.82 | 27.6 ± 1.9 | 4.18 | – | – | –
